Laboratory results reported in patent US20110201564A1, “SUBSTITUTED 7-SULFANYLMETHYL, 7-SULFINYLMETHYL AND 7-SULFONYLMETHYL INDOLES AND USE THEREOF” (BAYER SCHERING PHARMA AKTIENGESELLSCHAFT, priority 2008, published 2011).
Like-named read-outs stand apart in the source and are kept apart here.

Tests used:
[1] = target: T1, progesterone receptor (PR) (Homo sapiens, UniProt P06401); experiment: Cellular in vitro assay, GAL4-PR chimera luciferase reporter in CHO K1 cells (selectivity); type: cell-based; conditions: antagonism vs progesterone; CHO K1 GAL4-PR LBD luciferase reporter
T1 construct: of the progesterone receptor (PR, amino acids 680-933); expressed in transfected cells; host or cells: CHO K1
T1 sequence (P06401 680-933): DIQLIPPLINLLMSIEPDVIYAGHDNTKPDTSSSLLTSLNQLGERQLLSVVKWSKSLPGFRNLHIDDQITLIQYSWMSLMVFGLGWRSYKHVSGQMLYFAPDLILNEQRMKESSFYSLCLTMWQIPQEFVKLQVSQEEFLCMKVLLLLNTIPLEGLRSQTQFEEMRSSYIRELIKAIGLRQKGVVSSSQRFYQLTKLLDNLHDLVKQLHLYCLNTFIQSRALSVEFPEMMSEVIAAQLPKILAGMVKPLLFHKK
Text: (§1) 1. Cellular In Vitro Assay to Determine the Inhibitory MR Activity and MR Selectivity Compared with Other Steroid Hormone Receptors
(§2) Antagonists of the human mineralocorticoid receptor (MR) are identified, and the activity of the compounds described herein is quantified with the aid of a recombinant cell line. The cell is originally derived from a hamster ovary epithelial cell (Chinese Hamster Ovary, CHO K1, ATCC: American Type Culture Collection, VA 20108, USA).
(§3) An established chimera system in which the ligand-binding domains of human steroid hormone receptors are fused to the DNA-binding domain of the yeast transcription factor GAL4 is used in this CHO K1 cell line. The GAL4-steroid hormone receptor chimeras produced in this way are cotransfected and stably expressed with a reporter construct in the CHO cells.
(§4) To generate the GAL4-steroid hormone receptor chimeras, the GAL4 DNA-binding domain (amino acids 1-147) from the vector pFC2-dbd (from Stratagene) is cloned with the PCR-amplified ligand-binding domains of the mineralocorticoid receptor (MR, amino acids 734-985), of the progesterone receptor (PR, amino acids 680-933) and of the androgen receptor (AR, amino acids 667-919) into the vector pIRES2 (from Clontech). The reporter construct, which comprises five copies of the GAL4 binding site upstream of a thymidine kinase promoter, leads to expression of firefly luciferase (Photinus pyralis) after activation and binding of the GAL4-steroid hormone receptor chimeras by the respective specific agonists aldosterone (MR), dexamethasone (GR), progesterone (PR) and dihydrotestosterone (AR).
(§5) The MR, PR and AR cells are plated out in medium (Optimem, 2.5% FCS, 2 mM glutamine, 10 mM HEPES) in 96- (or 384- or 1536-)well microtiter plates on the day before the assay and are kept in a cell incubator (96% humidity, 5% v/v CO2, 37° C.). On the day of the assay, the substances to be tested are taken up in the abovementioned medium and added to the cells. About 10 to 30 minutes after addition of the test substances, the respective specific agonists of the steroid hormone receptors are added. After a further incubation time of 5 to 6 hours, the luciferase activity is measured with the aid of a video camera. The measured relative light units as a function of the substance concentration result in a sigmoidal stimulation curve. The IC50 values are calculated with the aid of the GraphPad PRISM computer program (Version 3.02).

[2] = target: T2, human mineralocorticoid receptor (MR) (Homo sapiens, UniProt P08235); experiment: Cellular in vitro assay, GAL4-MR chimera luciferase reporter in CHO K1 cells (inhibitory MR activity); type: cell-based; conditions: antagonism vs aldosterone; CHO K1 GAL4-MR LBD luciferase reporter
T2 construct: expressed in transfected cells; host or cells: CHO K1
T2 sequence (P08235 734-984 limits assumed): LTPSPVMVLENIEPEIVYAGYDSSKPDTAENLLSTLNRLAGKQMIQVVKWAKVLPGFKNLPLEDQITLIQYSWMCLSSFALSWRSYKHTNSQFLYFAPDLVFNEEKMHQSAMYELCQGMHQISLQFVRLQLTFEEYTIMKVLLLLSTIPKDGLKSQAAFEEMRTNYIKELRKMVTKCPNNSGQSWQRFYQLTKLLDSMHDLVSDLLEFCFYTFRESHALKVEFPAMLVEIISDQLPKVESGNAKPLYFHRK
Text: as §1, §2, §3, §4, §5

[3] = target: T3, androgen receptor (AR) (Homo sapiens, UniProt P10275); experiment: Cellular in vitro assay, GAL4-AR chimera luciferase reporter in CHO K1 cells (selectivity); type: cell-based; conditions: antagonism vs dihydrotestosterone; CHO K1 GAL4-AR LBD luciferase reporter
T3 construct: of the androgen receptor (AR, amino acids 667-919); expressed in transfected cells; host or cells: CHO K1
T3 sequence (P10275 668-920): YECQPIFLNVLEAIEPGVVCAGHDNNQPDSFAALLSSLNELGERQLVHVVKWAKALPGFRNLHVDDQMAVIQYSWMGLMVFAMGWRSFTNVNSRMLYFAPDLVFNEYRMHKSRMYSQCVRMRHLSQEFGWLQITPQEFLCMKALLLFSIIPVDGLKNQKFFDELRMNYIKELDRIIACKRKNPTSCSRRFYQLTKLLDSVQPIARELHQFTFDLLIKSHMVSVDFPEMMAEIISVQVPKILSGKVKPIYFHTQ
Text: as §1, §2, §3, §4, §5

[4] = target: T4, CYP3A4 (Homo sapiens, UniProt P08684); experiment: CYP inhibition assay with human liver microsomes; type: in vitro ADME
T4 construct: using human liver microsomes (pool from various individuals); from tissue; host or cells: human liver microsomes (pool from various individuals)
T4 sequence (P08684 whole entry): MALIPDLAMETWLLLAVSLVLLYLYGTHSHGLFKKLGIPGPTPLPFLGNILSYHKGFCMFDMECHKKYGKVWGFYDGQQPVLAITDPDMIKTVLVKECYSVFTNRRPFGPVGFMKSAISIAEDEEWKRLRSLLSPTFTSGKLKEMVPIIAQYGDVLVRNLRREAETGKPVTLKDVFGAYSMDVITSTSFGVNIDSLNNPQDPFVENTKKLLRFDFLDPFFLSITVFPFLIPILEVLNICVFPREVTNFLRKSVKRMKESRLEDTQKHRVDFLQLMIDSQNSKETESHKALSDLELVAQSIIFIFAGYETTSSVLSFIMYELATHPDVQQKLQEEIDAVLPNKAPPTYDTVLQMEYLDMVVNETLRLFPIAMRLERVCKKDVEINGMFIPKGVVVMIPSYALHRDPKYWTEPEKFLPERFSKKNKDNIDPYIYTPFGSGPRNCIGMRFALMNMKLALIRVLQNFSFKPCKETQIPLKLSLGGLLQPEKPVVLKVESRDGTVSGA
Text: Inhibitory properties of an active ingredient on the cytochromes P450 (CYP) of the human body may entail extensive clinical effects (drug interactions) because most of the prescribed medicaments are degraded (metabolized) by these enzymes. The ones involved in this are in particular the CYP isoenzymes of the 1A and 2C families, CYP2D6 and, with a proportion of almost 50%, CYP3A4. In order to preclude or minimize these possible drug interactions (Drug-Drug Interactions, DDI), the ability of substances to be able to inhibit CYP1A2, CYP2C8, CYP2C9, CYP2D6 and CYP3A4 in humans is investigated using human liver microsomes (pool from various individuals). This takes place by measuring CYP isoform-specific metabolites formed from standard substrates such as, for example, phenacetin, amodiaquin, diclofenac, dextromethorphan, midazolam and testosterone. The inhibitory effects are investigated at six different concentrations of the test compounds (1.5, 3.1, 6.3, 12.5, 25 and 50 μM as maximum concentration or 0.6, 1.3, 2.5, 5, 10 and 20 μM as maximum concentration), comparing with the extent of the CYP isoform-specific metabolite formation of the standard substrates in the absence of the test compounds, and calculating the corresponding IC50 values. CYP isoform-specific standard inhibitors such as, for example, fluvoxamine, quercetin, sulfaphenazole, fluoxetine and ketoconazole serve as control of the results obtained. In order to obtain indications of the possible mechanism-based inhibitors (MBI) on CYP3A4, the human liver microsomes are incubated in the presence of the inhibitor to be investigated for 30 minutes before the addition of midazolam or testosterone as standard substrates of CYP3A4. A reduction in the IC50 obtained by comparison with the mixture without preincubation serves as an indicator of a mechanism-based inhibition. Mibefradil serves as positive control.
The incubations of the standard substrates with human liver microsomes (23-233 μg/mL) in the presence of the test compound (as potential inhibitor) are carried out in 96-well plates in a workstation (Tecan, Genesis, Crailsheim, Germany) at 37° C. The incubation times are 15-20 minutes. The test compounds are preferably dissolved in acetonitrile (1.0 or 2.5 mM stock solution). The 96-well plates are produced by sequential addition of a stock solution of NADP+, EDTA, glucose 6-phosphate and glucose-6-phosphate dehydrogenase in phosphate buffer (pH 7.4), the test compound, and a solution of standard substrate and human liver microsomes in phosphate buffer (pH 7.4). The total volume is 200 μl. The corresponding control incubations with and without standard inhibitor also take place on the 96-well plate. The incubations are stopped after the respective incubation time by adding 100 μl of acetonitrile in which there is a suitable internal standard. Precipitated proteins are removed by centrifugation (3000 rpm, 10 minutes, 10° C.). The resulting supernatants of the respective plates are combined on one plate and analyzed by LC-MS/MS. The […] values are generated from the resulting measured data and used to assess the inhibitory potential of the test compound.

[5] = target: T4, CYP3A4; experiment: Assay to assess irreversible CYP3A4 inhibition (mechanism-based inhibition) in human liver microsomes; type: in vitro ADME; conditions: CYP3A4 activity as 6β-hydroxytestosterone formation, 2-20 μM
Text: 8. Assay to Assess Irreversible CYP3A4 Inhibition
Cytochrom P450 enzyme inhibition, especially irreversible enzyme inhibition, also referred to as mechanism-based inhibition (MBI), is an unwanted metabolic property of a substance which may, on concurrent administration of other medicaments, lead to considerable drug interactions. Criteria for the presence of an irreversible inhibition are a time-, concentration- and cofactor- (nicotinamide adenine dinucleotide phosphate, NADPH) dependent inhibition. To this end, the compounds of the invention are incubated in vitro with human liver microsomes, the influence on the CYP3A4 activity and the metabolic degradation of the novel active ingredient is determined, and the prototypical parameters kinact, Ki and the partition ratio r are ascertained therefrom.
The compounds of the invention are incubated with concentrations of 2-20 μM. To this end, stock solutions of the active ingredients with a concentration of 0.2-2 mM are prepared in acetonitrile and then pipetted with a 1:100 dilution into the incubation mixture. The liver microsomes are incubated in 50 mM potassium phosphate buffer (pH 7.4) with and without NADPH-generating system consisting of 1 mM NADP^+, 5 mM glucose 6-phosphate and 1 unit of glucose 6-phosphate dehydrogenase, at 37° C. After defined preincubation times of 0-50 min, aliquots are removed from these mixtures, diluted 1:25 in a new incubation, and incubated in the presence of testosterone and new NADPH-generating system again for 20 min. These incubation mixtures are stopped with acetonitrile (final concentration about 30% v/v), and the protein is removed by centrifugation at about 15 000×g. The samples stopped in this way are either analyzed directly or stored at −20° C. until analyzed.
The analysis takes place by high performance liquid chromatography with mass spectrometry detection (LC-MS). The formation of 6β-hydroxytestosterone as measure of CYP3A4 activity, and the test substance still remaining is quantified. The parameters kinact, Ki and the partition ratio r are determined therefrom so as to assess the novel active ingredients in relation to MBI.

[6] = 30 min preincubation with test compound before substrate, read-out: CYP 3A4 Preincubation, 30 min.
[7] = without preincubation, read-out: CYP 3A4 Coincubation

Row | SMILES | IC50 [1] | IC50 [2] | IC50 [3] | IC50 [4, 6] | IC50 [4, 7] | Partition ratio r [5]
1 | CS(=O)(=O)Cc1cccc2c(C(c3ccc(Cl)cc3Cl)C3CC3)c[nH]c12 (stereo not drawn) [Example 242, 3-[Cyclopropyl(2,4-dichlorophenyl)methyl]-7-[(methylsulfonyl)methyl]-1H-indole] | 3.77 µM | 66 nM | 1.39 µM | 15.8 µM | > 20 µM | 
2 | CS(=O)(=O)Cc1cc(F)cc2c(C(c3ccc(F)cc3Cl)C3CC3C#N)c[nH]c12 (single isomer, unassigned) [Example 266-1, 2-[(2-Chloro-4-fluorophenyl){5-fluoro-7-[(methylsulfonyl)methyl]-1H-indol-3-yl}methyl]cyclopropanecarbonitrile] | 3 µM | 7 nM | 1.29 µM |  |  | >200
3 | CS(=O)(=O)Cc1cccc2c(C(c3ccc(C(F)(F)F)cc3Cl)C3CC3)c[nH]c12 (stereo not drawn) [Example 245, 3-{[2-Chloro-4-(trifluoromethyl)phenyl](cyclopropyl)methyl}-7-[(methylsulfonyl)methyl]-1H-indole] |  | 120 nM | 3.45 µM | > 20 µM | > 20 µM | 
4 | CS(=O)(=O)Cc1cccc2c(C(c3ccc(Cl)cc3)C3CC3)c[nH]c12 (stereo not drawn) [Example 249, 3-[(4-Chlorophenyl)(cyclopropyl)methyl]-7-[(methylsulfonyl)methyl]-1H-indole] | 9.73 µM | 69 nM | 3.45 µM | 18.3 µM | > 20 µM | 
5 | CS(=O)(=O)Cc1cccc2c(C(c3ccc(F)cc3F)C3CC3)c[nH]c12 (stereo not drawn) [Example 250, 3-[Cyclopropyl(2,4-difluorophenyl)methyl]-7-[(methylsulfonyl)methyl]-1H-indole] | 10 µM | 270 nM | 1.6 µM | 19.4 µM | > 20 µM | 
6 | CS(=O)(=O)Cc1cccc2c(C(c3c(F)cc(Cl)cc3F)C3CC3)c[nH]c12 (stereo not drawn) [Example 252, 3-[(4-Chloro-2,6-difluorophenyl)(cyclopropyl)methyl]-7-[(methylsulfonyl)methyl]-1H-indole] | 10 µM | 71 nM | 3.03 µM | > 20 µM | > 20 µM | 
7 | CC(CCC#N)(c1ccc(Cl)cc1)c1c[nH]c2c(CS(C)(=O)=O)cccc12 (stereo not drawn) [Example 171, 4-(4-Chlorophenyl)-4-{7-[(methylsulfonyl)methyl]-1H-indol-3-yl}-pentanonitrile] | 2.23 µM | 30 nM | 3.2 µM | 7.8 µM | > 20 µM | 
8 | C[S+]([O-])Cc1cccc2c(C3(C4CC4)CCc4cc(F)ccc43)c[nH]c12 (mixture of isomers) [Example 120, 3-(1-Cyclopropyl-5-fluoro-2,3-dihydro-1H-inden-1-yl)-7-[(methylsulfinyl)methyl]-1H-indole] | 5.51 µM | 150 nM |  | 14.4 µM | > 20 µM | 
9 | CS(=O)(=O)Cc1cccc2c(C(c3ccc(Cl)cc3)C3CC3(F)F)c[nH]c12 (single isomer, unassigned) [Example 261-2, 3-[(4-Chlorophenyl)(2,2-difluorocyclopropyl)methyl]-7-[(methylsulfonyl)methyl]-1H-indole] | 5.24 µM | 28 nM | 6.06 µM | 15 µM | > 20 µM | 
